Experimental data taken from patent publication US4000259A, “Cyclic dodecapeptide analogs of somatostatin and intermediates” (American Home Products Corporation, priority 1975, dated 1976).

Assays:
[1] = tested on: growth hormone; assay: In vivo effect on growth hormone levels in nembutal-treated rats, radioimmunoassay; conditions: nembutal 50 mg/kg i.p., compound subcutaneously 3100 μg/kg, blood 15 minutes after injection, control 296 ± 25
Experimental: (§1) The effect on glucagon, growth hormone and insulin levels of the compound of Example 7 was determined by injecting rats weighing about 200-240 g first with nembutal intraperitoneally at a dose of 50 mg/kg then after 5 minutes injecting the rats subcutaneously with a solution of the compound of Example 7 in saline at a dose of 3.1 mg/kg per rat. Blood samples are taken 15 minutes after injection with the compound of Example 7. The glucagon, growth hormone and insulin levels were determined by radioimmunoassay.

[2] = tested on: glucagon; conditions: rats, nembutal 50 mg/kg i.p., compound subcutaneously 3100 μg/kg, blood 15 minutes after injection; control 10.5 ± 2
Experimental: as §1

[3] = tested on: insulin; assay: In vivo effect on insulin levels in nembutal-treated rats, radioimmunoassay; conditions: nembutal 50 mg/kg i.p., compound subcutaneously 3100 μg/kg, blood 15 minutes after injection, control 171 ± 4
Experimental: as §1

L-Lysyl-L-lysyl-L-asparaginyl-L-phenylalanyl-L-phenylalanyl-L-tryptophyl-L-lysyl-L-threonyl-L-phenylalanyl-L-threonyl-L-seryl-L-aspartic acid cyclic (12β→1ε)-peptide, triacetate [Example 7]
GH [1]: 227 ± 32 ng/kg | Glucagon [2]: 3.3 pg/mL | Insulin [3]: 182 ± 16 μU/ml
